The source made the active and inactive calls.
Columns and labels:
[1] = Luminescence Cell-Based Dose Confirmation HTS to Identify Activators of 5'UTR Stem-Loop Driven Alpha-Synuclein mRNA Translation in H4 Neuroglioblastoma Cells. [Related pubchem assays: 1829 (Project Summary), 1814 (Primary HTS)]; format: functional
[2] = Luminescence Cell-Based Dose Response HTS to Identify Activators of Luciferase Translation or Activity in H4 […] Cells. [Related pubchem assays: 1829 (Project Summary), 1814 (Primary HTS)]; format: functional
[3] = tested on: H4; test: Luminescence Cell-Based Dose Response HTS to Identify Activators of 5'UTR Stem-Loop Driven Prion Protein mRNA Translation in H4 Neuroglioblastoma Cells. [Related pubchem assays: 1829 (Project Summary), 1814 (Primary HTS)]; format: functional; conditions: Homo sapiens
[4] = target: G-protein coupled receptor 55 (Homo sapiens, UniProt Q9Y2T6); test: GPR55 agonists via beta-arrestin recruitment, primary screen, imaging, U2OS cells, beta-arrestin-GFP redistribution (AID 1961); format: functional
Chain of G-protein coupled receptor 55 (Q9Y2T6 whole entry): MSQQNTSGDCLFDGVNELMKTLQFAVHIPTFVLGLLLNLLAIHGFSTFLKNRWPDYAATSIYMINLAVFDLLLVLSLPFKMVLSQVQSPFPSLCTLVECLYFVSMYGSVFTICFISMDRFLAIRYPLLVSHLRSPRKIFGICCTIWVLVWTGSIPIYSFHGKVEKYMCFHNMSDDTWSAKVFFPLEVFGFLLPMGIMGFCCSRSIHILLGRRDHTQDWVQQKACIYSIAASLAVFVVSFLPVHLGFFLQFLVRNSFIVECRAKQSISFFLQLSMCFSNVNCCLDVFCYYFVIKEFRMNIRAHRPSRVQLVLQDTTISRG

[5] = target: Beta-galactosidase (Escherichia coli, UniProt Q8VNN2); test: beta-galactosidase enzyme inhibitors and activators, dose response, artefact control for CCR6 antagonist project, biochemical, E. coli enzyme, set 3 (AID 504712); format: functional
Chain of Beta-galactosidase (Q8VNN2 whole entry): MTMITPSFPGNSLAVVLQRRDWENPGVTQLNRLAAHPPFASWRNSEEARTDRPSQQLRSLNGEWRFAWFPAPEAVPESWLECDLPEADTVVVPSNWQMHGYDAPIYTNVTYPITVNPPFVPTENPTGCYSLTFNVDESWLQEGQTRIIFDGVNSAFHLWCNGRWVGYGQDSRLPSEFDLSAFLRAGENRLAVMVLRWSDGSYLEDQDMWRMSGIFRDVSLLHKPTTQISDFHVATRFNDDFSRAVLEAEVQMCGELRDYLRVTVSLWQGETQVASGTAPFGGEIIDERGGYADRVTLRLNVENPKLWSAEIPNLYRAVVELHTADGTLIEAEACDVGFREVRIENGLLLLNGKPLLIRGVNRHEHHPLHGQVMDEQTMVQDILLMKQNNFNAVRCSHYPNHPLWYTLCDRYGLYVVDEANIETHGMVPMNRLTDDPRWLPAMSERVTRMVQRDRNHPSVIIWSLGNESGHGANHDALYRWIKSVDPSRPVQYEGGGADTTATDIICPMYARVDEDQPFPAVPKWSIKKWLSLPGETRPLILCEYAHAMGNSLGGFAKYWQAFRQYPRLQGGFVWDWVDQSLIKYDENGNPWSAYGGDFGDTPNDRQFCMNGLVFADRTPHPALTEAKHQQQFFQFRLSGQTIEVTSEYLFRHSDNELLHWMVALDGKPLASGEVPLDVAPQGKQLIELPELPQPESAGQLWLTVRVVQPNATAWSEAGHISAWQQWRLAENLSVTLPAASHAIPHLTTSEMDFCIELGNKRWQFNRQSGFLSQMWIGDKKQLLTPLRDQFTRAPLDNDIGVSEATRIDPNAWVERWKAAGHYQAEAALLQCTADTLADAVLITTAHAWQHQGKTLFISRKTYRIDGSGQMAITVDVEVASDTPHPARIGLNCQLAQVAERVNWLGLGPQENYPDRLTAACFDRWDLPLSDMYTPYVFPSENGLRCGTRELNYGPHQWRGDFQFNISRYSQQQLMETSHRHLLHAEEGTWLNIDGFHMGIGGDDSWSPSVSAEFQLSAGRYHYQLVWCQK

[6] = tested on: H9c2; test: cells; format: functional, cell-based; conditions: Rattus norvegicus, H9c2, Myocardium;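 further: confirmatory concentration-response retest of ultra-high-throughput screening hits for modulation of myocardial damage; cell death induced by hydrogen peroxide oxidative stress; compound pretreatment for 60 min then peroxide exposure for 2 h; potency is for protecting the cells against peroxide damage rather than for killing them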
[7] = target: T1, Estrogen receptor (Homo sapiens, UniProt P03372);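 further: potency for inhibiting coactivator peptide recruitment to the receptor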
T1 sequence (P03372 whole entry): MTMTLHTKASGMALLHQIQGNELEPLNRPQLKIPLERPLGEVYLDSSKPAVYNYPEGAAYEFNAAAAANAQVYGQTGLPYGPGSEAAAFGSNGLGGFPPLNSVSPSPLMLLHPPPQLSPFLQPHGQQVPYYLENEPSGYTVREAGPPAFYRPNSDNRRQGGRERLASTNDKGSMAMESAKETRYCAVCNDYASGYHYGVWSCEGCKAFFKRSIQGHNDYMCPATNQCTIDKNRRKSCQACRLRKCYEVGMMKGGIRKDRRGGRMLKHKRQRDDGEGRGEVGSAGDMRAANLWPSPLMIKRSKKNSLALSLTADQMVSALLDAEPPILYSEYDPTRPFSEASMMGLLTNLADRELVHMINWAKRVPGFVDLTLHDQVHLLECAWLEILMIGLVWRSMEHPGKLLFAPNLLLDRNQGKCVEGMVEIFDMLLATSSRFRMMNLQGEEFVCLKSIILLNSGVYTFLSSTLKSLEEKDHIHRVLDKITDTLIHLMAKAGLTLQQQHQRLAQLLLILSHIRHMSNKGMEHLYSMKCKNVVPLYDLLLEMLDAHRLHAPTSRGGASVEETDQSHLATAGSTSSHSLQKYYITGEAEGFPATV

[8] = cells
[9] = microbe, parasite or virus in culture; format: functional; conditions: Mycobacterium tuberculosis
[10] = target: T2, Heat shock factor protein 1 (Mus musculus, UniProt P38532); test: HSF1 potentiators in luciferase reporter cells, confirmation, cell-based, NIH3T3, luminescence, dose retest (AID 435004); format: functional;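 further: stress induced by proteasome inhibitor MG132 added 30 min after compound; luciferase reporter driven by HSF1 response element in NIH3T3 cells; actives raise luminescence as potentiators of the MG132 stress response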
T2 sequence (P38532 whole entry): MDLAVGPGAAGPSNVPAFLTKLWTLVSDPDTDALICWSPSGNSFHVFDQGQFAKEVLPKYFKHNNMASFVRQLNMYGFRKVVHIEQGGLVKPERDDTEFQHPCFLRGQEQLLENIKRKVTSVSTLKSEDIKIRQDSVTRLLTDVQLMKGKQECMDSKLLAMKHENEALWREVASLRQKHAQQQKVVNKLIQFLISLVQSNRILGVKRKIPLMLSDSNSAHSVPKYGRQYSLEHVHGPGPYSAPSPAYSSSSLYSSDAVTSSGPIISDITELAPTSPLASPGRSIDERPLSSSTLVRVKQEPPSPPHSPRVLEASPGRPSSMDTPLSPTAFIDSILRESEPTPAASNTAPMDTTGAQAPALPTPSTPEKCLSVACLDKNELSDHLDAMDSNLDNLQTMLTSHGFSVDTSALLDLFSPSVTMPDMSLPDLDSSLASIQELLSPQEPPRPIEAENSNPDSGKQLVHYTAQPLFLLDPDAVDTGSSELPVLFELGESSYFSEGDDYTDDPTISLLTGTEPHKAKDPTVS

[11] = target: Heat shock protein HSP 90-alpha (Homo sapiens, UniProt P07900); format: functional, organism-based
[12] = tested on: INS1; test: beta cell apoptosis inhibitors, cytokine rescue, dose response, luminescence, retest (AID 449756); format: functional, cell-based; conditions: Rattus norvegicus;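 further: cell death triggered by IL-1 beta plus TNF-alpha plus IFN-gamma mixture; protective hits raise ATP signal compared with cytokine alone wells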
[13] = Shn3 3'UTR reporter inhibitors, dose response, cell-based, Clone20 osteoblasts, firefly luciferase, cherry-picked (AID 624132); format: functional;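 further: firefly luciferase luminescence from reporter carrying the Shn3 3'UTR in osteoblasts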
[14] = HepG2 cell cytotoxicity, dose response, cytotoxicity control for Shn3 inhibitor project, CellTiter-Glo, cherry-picked (AID 624134); format: functional, cell-based
[15] = control 3'UTR Renilla luciferase suppression, dose response, counter-screen for Shn3 inhibitor project, cell-based, Clone20-Shn3RL, cherry-picked (AID 624133); format: functional
[16] = HeLa cell cytotoxicity, dose response, cytotoxicity control for MgcRacGAP inhibitor project (AID 624300); format: functional
[17] = target: T3, Rac GTPase-activating protein 1 (Homo sapiens, UniProt Q9H0H5); test: MgcRacGAP GTPase-activating activity inhibitors, confirmation, biochemical, ADP Hunter fluorescence, primary and confirmatory (AID 624330); format: functional
T3 sequence (Q9H0H5 whole entry): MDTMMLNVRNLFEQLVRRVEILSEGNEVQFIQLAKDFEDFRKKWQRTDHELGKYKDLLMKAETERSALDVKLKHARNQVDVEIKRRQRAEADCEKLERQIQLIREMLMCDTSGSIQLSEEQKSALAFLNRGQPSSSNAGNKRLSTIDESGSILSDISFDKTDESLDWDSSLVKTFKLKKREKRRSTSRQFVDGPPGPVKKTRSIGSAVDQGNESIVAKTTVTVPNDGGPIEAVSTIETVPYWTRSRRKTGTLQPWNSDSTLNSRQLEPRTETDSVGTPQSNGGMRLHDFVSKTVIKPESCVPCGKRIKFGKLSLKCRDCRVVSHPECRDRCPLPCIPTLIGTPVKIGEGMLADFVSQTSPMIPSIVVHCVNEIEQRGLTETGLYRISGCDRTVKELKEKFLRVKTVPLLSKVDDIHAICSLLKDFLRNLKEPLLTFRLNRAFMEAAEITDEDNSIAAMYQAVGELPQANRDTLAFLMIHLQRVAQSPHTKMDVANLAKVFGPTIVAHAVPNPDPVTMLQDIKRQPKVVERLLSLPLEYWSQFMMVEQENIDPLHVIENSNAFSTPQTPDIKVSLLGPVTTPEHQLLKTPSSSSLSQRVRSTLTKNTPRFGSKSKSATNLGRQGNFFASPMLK

[18] = HEp-2 cell cytotoxicity, dose response, cytotoxicity control for RSV inhibitor project, HTS (AID 2410); format: functional; conditions: human respiratory syncytial virus
[19] = target: T4, Ubiquitin-conjugating enzyme E2 N (Homo sapiens, UniProt P61088); format: functional;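 further: Dose-response confirmation in a TR-FRET assay detecting UBC13-driven polyubiquitin chain formation, inhibition measured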
T4 sequence (P61088 whole entry): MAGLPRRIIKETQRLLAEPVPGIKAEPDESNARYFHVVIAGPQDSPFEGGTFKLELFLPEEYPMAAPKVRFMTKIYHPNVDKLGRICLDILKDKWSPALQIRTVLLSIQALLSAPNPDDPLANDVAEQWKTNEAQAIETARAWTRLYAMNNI

[20] = target: DNA dC->dU-editing enzyme APOBEC-3A (Homo sapiens, UniProt P31941); test: APOBEC3A DNA deaminase inhibitors, dose response, biochemical (AID 504722); format: functional
Chain of DNA dC->dU-editing enzyme APOBEC-3A (P31941 whole entry): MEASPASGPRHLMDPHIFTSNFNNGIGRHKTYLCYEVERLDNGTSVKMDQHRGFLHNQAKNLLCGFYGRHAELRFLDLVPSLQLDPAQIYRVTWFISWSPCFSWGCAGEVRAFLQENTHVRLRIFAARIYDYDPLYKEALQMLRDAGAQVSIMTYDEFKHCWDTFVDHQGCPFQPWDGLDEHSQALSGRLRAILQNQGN

[21] = target: DNA dC->dU-editing enzyme APOBEC-3G (Homo sapiens, UniProt Q9HC16); test: Dose Response confirmation of small molecule APOBEC3G DNA Deaminase Inhibitors via a fluorescence-based single-stranded DNA deaminase assay. [Related pubchem assays (depositor defined):AID493012, AID493028]; format: functional
Chain of DNA dC->dU-editing enzyme APOBEC-3G (Q9HC16 whole entry): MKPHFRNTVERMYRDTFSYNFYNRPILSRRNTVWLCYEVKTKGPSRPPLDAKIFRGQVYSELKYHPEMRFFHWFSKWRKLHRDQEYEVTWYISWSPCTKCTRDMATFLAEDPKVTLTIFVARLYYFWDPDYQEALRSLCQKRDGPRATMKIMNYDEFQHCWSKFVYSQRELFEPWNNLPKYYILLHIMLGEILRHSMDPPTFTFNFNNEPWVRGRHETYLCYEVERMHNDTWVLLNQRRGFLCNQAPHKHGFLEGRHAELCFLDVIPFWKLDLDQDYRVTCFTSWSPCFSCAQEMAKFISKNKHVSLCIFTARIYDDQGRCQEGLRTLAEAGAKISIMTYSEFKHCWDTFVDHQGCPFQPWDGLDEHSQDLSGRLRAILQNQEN

[22] = cytotoxicity in HPDE-C7 cells, cell-based, fluorescence, HTS (AID 430); format: functional; conditions: Homo sapiens
[23] = cytotoxicity in KRAS-transformed pancreatic duct cells, primary screen, cell-based, fluorescence, HTS (AID 431); format: functional; conditions: Homo sapiens;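 further: cell line used: HPDE-C7K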
[24] = Luminescence Cell-Based Dose Retest to Confirm Inhibitors of Cancer Stem Cells. [Related pubchem assays (depositor defined):AID2717, AID2721]; format: functional; conditions: Homo sapiens
[25] = target: T5, Microphthalmia-associated transcription factor (Homo sapiens, UniProt O75030); test: TRPM1 promoter luciferase signal decrease, dose response, MITF inhibitor project, cell-based, SK-MEL-5, cherry-picked, set 3 (AID 493073); format: functional
T5 sequence (O75030 whole entry): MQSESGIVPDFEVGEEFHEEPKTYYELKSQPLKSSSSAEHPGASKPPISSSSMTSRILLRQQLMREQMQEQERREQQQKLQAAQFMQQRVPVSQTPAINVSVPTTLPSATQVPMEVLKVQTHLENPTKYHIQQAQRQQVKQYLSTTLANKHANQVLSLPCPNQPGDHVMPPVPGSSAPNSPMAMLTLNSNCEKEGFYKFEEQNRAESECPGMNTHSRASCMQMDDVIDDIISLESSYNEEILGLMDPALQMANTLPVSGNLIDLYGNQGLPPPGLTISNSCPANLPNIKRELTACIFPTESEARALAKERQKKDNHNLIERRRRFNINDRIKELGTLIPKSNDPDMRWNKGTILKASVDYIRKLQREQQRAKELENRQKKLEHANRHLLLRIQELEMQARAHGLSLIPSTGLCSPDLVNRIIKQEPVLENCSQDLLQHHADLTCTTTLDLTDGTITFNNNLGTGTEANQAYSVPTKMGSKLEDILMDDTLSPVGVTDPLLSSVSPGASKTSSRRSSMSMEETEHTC

## Clc1ccccc1-c1nc2ccccc2[nH]1
[1]
  EC50: 0.289 µM (active)
[2]
  EC50: 0.36 µM (active)
[3]
  EC50: 13.7 µM (active)
[4]
  EC50: 2.24 µM (active)

## COc1cccc(-c2nnc(NC(=O)c3ccc(Cl)s3)o2)c1
[5]
  IC50: > 66.6 µM (inactive)
[6]
  IC50: > 79 µM (inactive)

## CN(C)c1nc(N/N=C\c2ccc(Cl)c([N+](=O)[O-])c2)nc(Nc2ccc(F)cc2)n1
[7]
  IC50: > 50 µM (not active)

## c1csc(-c2nc3c4ccccc4c4ccccc4c3[nH]2)c1
[8]
  IC50: 5.21 µM (active)

## CN(c1ccccc1)c1ccc(/C=C/[N+](=O)[O-])cc1
[9]
  CC50: 25.9 µM (active)
[5]
  IC50: > 66.6 µM (inactive)
[10]
  EC50: 5.04 µM (inconclusive)
[11]
  AC50: 8.67 µM (active)
[12]
  AC50: 6.67 µM (active)
[13]
  AC50: 5.79 µM (active)
[14]
  AC50: 18 µM (active)
[15]
  AC50: 17.5 µM (active)
[16]
  CC50: 38.5 µM (active)
[17]
  IC50: 23.3 µM (active)

## COc1ccccc1NC(=O)Nc1nc(C(C)(C)C)cs1
[18]
  CC50: > 50 µM (active)
[19]
  IC50: > 20 µM (inactive)
[8]
  IC50: 30.3 µM (active)

## O=[N+]([O-])c1cc2c(cc1/C=N/n1c(S)nnc1-c1ccccc1)OCO2
[20]
  IC50: > 100 µM (inactive)
[21]
  IC50: 1.89 µM (active)

## CCOC(=O)c1c(C)oc2c(F)c(F)c(F)c(F)c2c1=O
[22]
  EC50: 1.55 µM (active)
[23]
  EC50: 1.49 µM (active)
[24]
  AC50: 1.26 µM (active)
[25]
  AC50: 2.32 µM (active)
